This is an account of results in PubChem BioAssay AID2060495 (Molecular Pharmacology Branch, DTP, NCI, 2025).

“And” between values parts separate entries of the source, which are not always exact repeats. Identical values can stand only once.

For orientation: IC50 means the midpoint of a concentration-inhibition curve. As usually defined, the viability, T/C is the ratio of treated to control.

This assay deals with 521955-158-R2-J5-PDC complex spheroid viability. The experiment in a line: Anticancer human tumor 521955-158-R2-J5-PDC patient-derived pancreatic carcinoma cell line growth inhibition [GQUAD]. Particulars: for viability, T/C: stronger effect = lower value. The source says: DNA G-quadruplex Stabilizer Agents in Combinations in Complex Spheroids
A high-throughput screen of multi-cell type tumor spheroids was designed to identify active combinations of DNA G-quadruplex stabilizer agents and targeted small molecules. Complex spheroids include a stromal component modeled by human endothelial cells (HUVEC) and fibroblasts modeled by human mesenchymal stem cells (MSCs). The concentration ranges selected for each drug and investigational agent were based upon clinically achievable concentrations if the clinical Cmax of the agent was known.
Compounds. The drugs and investigational agents: pidnarulex (CX-5461; NSC782164), APTO-253 (NSC789042), BRACO-19 (NSC847499), peposertib (NSC802822), ceralasertib (NSC780249), elimusertib (NSC800525), camonsertib (NSC841442), AZD-1390 (NSC803789), olaparib (NSC753686), talazoparib (NSC767125), ART-558 (NSC835418), sotorasib (NSC818433), MRTX-1133 (NSC836407), SN-38 (NSC673596), topotecan (NSC609699), etoposide (NSC141540), doxorubicin (NSC123127), gemcitabine (NSC613327), 5-fluorouracil (NSC19893), paclitaxel (NSC125973), vemurafenib (NSC761431), panobinostat (NSC761190), R-306465 (JNJ-16241199; NSC773264), adavosertib (NSC754352), TP-3654 (NSC805149), carboplatin (NSC241240), KSQ-4279 (NSC840948), and staurosporine (NSC755774) were obtained from the National Cancer Institute (NCI) Developmental Therapeutics Program Chemical Repository (34). The FDA-approved anticancer drug set is available from the NCI Developmental Therapeutics Program. […] The stock solutions were prepared in dimethyl sulfoxide (DMSO, Sigma-Aldrich, St. Louis, MO, cat. D2650) at 800-fold the tested concentration and stored at -70 degrees C prior to their use. All drugs and investigational agents were tested over a range starting from a high concentration at or near the clinical Cmax and decreasing in half-log increments. If the clinical Cmax for an agent had not been determined, the highest concentration tested was 10 microM.
2.3 Cell Culture. All cells were maintained in an incubator at 37 degrees C and 5% CO2 with 95% humidity. The PDC lines were cultured according to standard operating procedures established by the NCI PDMR. All PDCs were thawed and cultured in Matrigel-coated flasks prepared with a working solution of 1X Ham's F-12 nutrient mix, without supplementation (Invitrogen, cat. 11765054), 100 U/mL penicillin-streptomycin (Invitrogen, cat. 15140122), and 2.5% Matrigel (Corning Inc., cat. 354248) for the first three passages. The 857933-349-R-J2-PDC line was cultured in 6C/Colon 1B media, which includes advanced DMEM/F-12 (Thermo Fisher Scientific, cat. 12634028), 10 mM HEPES (Thermo Fisher Scientific, cat. 15630080), 1X GlutaMAX supplement (Thermo Fisher Scientific, cat. 35050061), 0.1 mg/mL primocin (InvivoGen, cat. ant-pm-2), 10% defined fetal bovine serum, heat inactivated (HyClone Laboratories Inc., cat. SH30070.03HI), 50% L-WRN conditioned media (ATCC, cat. CRL-3276), 1.25 mM N-Acetyl-L-cysteine (Sigma-Aldrich, cat. A9165), 10 mM nicotinamide (Sigma-Aldrich, cat. N0636), 1X B-27 supplement (Thermo Fisher Scientific, cat. 17504044), 1X N-2 supplement (Thermo Fisher Scientific, cat. 17502048), 10 microM Y-27632 dihydrochloride (Tocris Bioscience, cat. 1254), and 50 ng/mL human EGF recombinant protein (Thermo Fisher Scientific, cat. PHG0311). The 485176-168-R4-J1-PDC line was cultured in Panc media, which includes all 6C/Colon 1B media components plus 100 ng/mL human FGF-10 (Thermo Fisher Scientific, cat. 100-26), 500 nM SB-431542 (Selleckchem, cat. S1067), and gastrin (Tocris, cat. 3006).
[…]

[1] abbreviates: curve of first compound, second compound 0.0316 µM.
The mark [2] stands for this setting: curve of first compound, second compound 0.1 µM.
Where [3] appears, read: curve of first compound, second compound 0.316 µM.
Where [4] appears, read: curve of first compound, second compound 1 µM.
Setting [5] is: curve of first compound, second compound 3.16 µM.
Where [6] appears, read: curve of first compound, second compound 10 µM.
[7] abbreviates: second compound 0.0316 µM, first compound 0.0316 µM.
Setting [8] is: second compound 0.0316 µM, first compound 0.1 µM.
[9] abbreviates: second compound 0.0316 µM, first compound 0.316 µM.
[10] abbreviates: second compound 0.0316 µM, first compound 1 µM.
The mark [11] stands for this setting: second compound 0.0316 µM, first compound 3.16 µM.
Where [12] appears, read: second compound 0.0316 µM, first compound 10 µM.
The mark [13] stands for this setting: second compound 0.1 µM, first compound 0.0316 µM.
[14] abbreviates: second compound 0.1 µM, first compound 0.1 µM.
Setting [15] is: second compound 0.1 µM, first compound 0.316 µM.
The mark [16] stands for this setting: second compound 0.1 µM, first compound 1 µM.
The mark [17] stands for this setting: second compound 0.1 µM, first compound 3.16 µM.
Setting [18] is: second compound 0.1 µM, first compound 10 µM.
The mark [19] stands for this setting: second compound 0.316 µM, first compound 0.0316 µM.
[20] abbreviates: second compound 0.316 µM, first compound 0.1 µM.
[21] abbreviates: second compound 0.316 µM, first compound 0.316 µM.
[22] abbreviates: second compound 0.316 µM, first compound 1 µM.
Where [23] appears, read: second compound 0.316 µM, first compound 3.16 µM.
Setting [24] is: second compound 0.316 µM, first compound 10 µM.
Setting [25] is: second compound 1 µM, first compound 0.0316 µM.
The mark [26] stands for this setting: second compound 1 µM, first compound 0.1 µM.
Setting [27] is: second compound 1 µM, first compound 0.316 µM.
Setting [28] is: second compound 1 µM, first compound 1 µM.
Where [29] appears, read: second compound 1 µM, first compound 3.16 µM.
Where [30] appears, read: second compound 1 µM, first compound 10 µM.
Where [31] appears, read: second compound 3.16 µM, first compound 0.0316 µM.
[32] abbreviates: second compound 3.16 µM, first compound 0.1 µM.
Where [33] appears, read: second compound 3.16 µM, first compound 0.316 µM.
The mark [34] stands for this setting: second compound 3.16 µM, first compound 1 µM.
The mark [35] stands for this setting: second compound 3.16 µM, first compound 3.16 µM.
Where [36] appears, read: second compound 3.16 µM, first compound 10 µM.
[37] abbreviates: second compound 10 µM, first compound 0.0316 µM.
[38] abbreviates: second compound 10 µM, first compound 0.1 µM.
[39] abbreviates: second compound 10 µM, first compound 0.316 µM.
Where [40] appears, read: second compound 10 µM, first compound 1 µM.
[41] abbreviates: second compound 10 µM, first compound 3.16 µM.
The mark [42] stands for this setting: second compound 10 µM, first compound 10 µM.
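Also: spheroids exposed to agents for one week before reading.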

Take `COc1cccc2c1C(=O)c1c(O)c3c(c(O)c1C2=O)CC(O)(C(=O)CO)CC3OC1CC(N)C(O)C(C)O1` (centres undefined) + Cc1cnc(CNC(=O)c2c(=O)c3ccc(N4CCCN(C)CC4)nc3n3c2sc2ccccc23)cn1: the IC50 by setting is: under setting [1], 113 nM; under setting [2], 127 nM; under setting [3], < 31.6 nM; under setting [4], < 31.6 nM; under setting [5], < 31.6 nM; under setting [6], < 31.6 nM. Moreover, the viability, T/C under setting [7] is 78.2%; the viability, T/C under setting [8] was 48%; the viability, T/C under setting [9] was 38.4%; the viability, T/C under setting [10] is 10.9%; the viability, T/C under setting [11] was 4.19%; the viability, T/C under setting [12] is 0.5%. For the same molecule, the viability, T/C is, setting by setting: under setting [13], 53.3%; under setting [14], 59.6%; under setting [15], 26.3%; under setting [16], 10.6%; under setting [17], 1.38%; under setting [18], 0.74%. For the same molecule, the viability, T/C is 36.3% under setting [19]; 37.1% under setting [20]; 20.9% under setting [21]; 8.92% under setting [22]; 0.18% under setting [23]; 0.39% under setting [24]. Besides, the viability, T/C reads like this: under setting [25], 20.7%; under setting [26], 20.1%; under setting [27], 14.5%; under setting [28], 8.17%; under setting [29], 0.08%; under setting [30], 0.07%. Moreover, the viability, T/C was 18.5% under setting [31]; 18.4% under setting [32]; 15% under setting [33]; 5.89% under setting [34]; 0.12% under setting [35]; 0.13% under setting [36]. Besides, the viability, T/C reads like this: under setting [37], 18.4%; under setting [38], 14.4%; under setting [39], 16.2%; under setting [40], 4.97%; under setting [41], 0.21%; under setting [42], 0.19%.
Turning to `COc1ncnc(C2CC2)c1-c1ncc2cnn(Cc3ccc(-c4nc(C(F)(F)F)cn4C(C)C)cc3)c2n1`, the viability, T/C (compound 0.0316 µM) was 116% (2×) and 103%; the viability, T/C (compound 0.1 µM) is 88.7% and 102% and 106%; the viability, T/C (compound 0.316 µM) was 105% and 113% and 124%; the viability, T/C (compound 1 µM) is 85% and 107% and 113%; the viability, T/C (compound 3.16 µM) was 116% and 114% and 132%; the viability, T/C (compound 10 µM) was 124% and 108% and 134%. For the same molecule, the IC50 (curve of compound) is > 10000 nM.
With `Cc1[nH]c2ccc(F)cc2c1-c1nc2c3cccnc3c3ncccc3c2[nH]1`, the viability, T/C by setting is: (compound 0.0316 µM) 106% [middle of 12 runs]; (compound 0.1 µM) 100% [middle of 12 runs]; (compound 1 µM) 102% [middle of 12 runs]; (compound 10 µM) 89.7% [middle of 12 runs]. In addition, the IC50 by setting is: (compound alone, run of 04/16/2024) > 10000 nM; (compound alone, run of 04/22/2024) > 10000 nM.
With `Nc1ccn(C2OC(CO)C(O)C2(F)F)c(=O)n1` (centres undefined) + CN(C)c1ccc(Nc2c3ccc(NC(=O)CCN4CCCC4)cc3nc3cc(NC(=O)CCN4CCCC4)ccc23)cc1, the IC50 amounted to 774 nM under setting [1]; 423 nM under setting [2]; 434 nM under setting [3]; 394 nM under setting [4]; 157 nM under setting [5]; 83 nM under setting [6]. For the same molecule, the viability, T/C is 76.5% under setting [7]; 73.5% under setting [8]; 66% under setting [9]; 45.1% under setting [10]; 24.1% under setting [11]; 12.6% under setting [12]. Moreover, the viability, T/C is 76.6% under setting [13]; 76.5% under setting [14]; 54.5% under setting [15]; 32.3% under setting [16]; 19.5% under setting [17]; 14.7% under setting [18]. The viability, T/C by setting is: under setting [19], 65.2%; under setting [20], 66.7%; under setting [21], 56.9%; under setting [22], 31.1%; under setting [23], 17.1%; under setting [24], 14.2%. In addition, the viability, T/C under setting [25] was 71.7%; the viability, T/C under setting [26] is 58.7%; the viability, T/C under setting [27] was 57.1%; the viability, T/C under setting [28] is 25.9%; the viability, T/C under setting [29] is 12.5%; the viability, T/C under setting [30] is 12%. In addition, the viability, T/C by setting is: under setting [31], 61.6%; under setting [32], 52.8%; under setting [33], 43.2%; under setting [34], 22.4%; under setting [35], 12.5%; under setting [36], 11.9%. Also, the viability, T/C by setting is: under setting [37], 64.8%; under setting [38], 39.9%; under setting [39], 41.1%; under setting [40], 27%; under setting [41], 17.2%; under setting [42], 11.6%.
Take `Nc1ccn(C2OC(CO)C(O)C2(F)F)c(=O)n1` (centres undefined): the viability, T/C was 95.8% and 80% and 84.4% (compound 0.0316 µM); 86% and 65.7% and 69.4% (compound 0.1 µM); 75.9% and 57.5% and 71% (compound 0.316 µM); 17% and 46.2% and 22.6% (compound 1 µM); 9.14% and 18.9% and 7.37% (compound 3.16 µM); 8.29% and 13.5% and 6.71% (compound 10 µM). Moreover, under “curve of compound”, the IC50 is 524 nM and 534 nM and 518 nM.
